PubChem BioAssay (NCI)
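Values below derive from 48-hour exposures of cells grown in 96-well plates, with endpoints linearly interpolated between the two concentrations bracketing the appropriate inhibition level. TGI: total growth inhibition.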

Assays:
Assay in all cases: NCI tumour cell line growth inhibition, 48 h
[1] = system: LOX IMVI melanoma
[2] = system: SF-268 CNS
[3] = system: SNB-19 CNS
[4] = system: NCI-H460 lung
[5] = system: UACC-257 melanoma
[6] = system: SR leukemia
[7] = system: NCI-H522 lung
[8] = system: HOP-92 NSCLC
[9] = system: HL-60(TB) leukemia
[10] = system: SK-MEL-2 melanoma
[11] = system: T-47D breast
[12] = system: SK-MEL-28 melanoma
[13] = system: MALME-3M melanoma
[14] = system: MDA-MB-435
[15] = system: IGROV1 ovarian
[16] = system: HT29 colon
[17] = system: HCT-15 colon
[18] = system: HOP-62 NSCLC
[19] = system: 786-0 renal
[20] = system: OVCAR-8 ovarian
[21] = system: K-562 leukemia
[22] = system: HCT-116 colon
[23] = system: SW-620 colon
[24] = system: SF-295 CNS
[25] = system: COLO 205 colon
[26] = system: NCI-H23 lung
[27] = system: OVCAR-5 ovarian
[28] = system: DU-145 prostate
[29] = system: SK-MEL-5 melanoma
[30] = system: KM12 colon
[31] = system: SK-OV-3 ovarian
[32] = system: UACC-62 melanoma
[33] = system: EKVX NSCLC
[34] = system: ACHN renal
[35] = system: A498 renal
[36] = system: SNB-75 CNS
[37] = system: A549 NSCLC
[38] = system: SN12C renal
[39] = system: MCF7 breast
[40] = system: TK-10 renal
[41] = system: SF-539 CNS
[42] = system: MDA-N
[43] = system: U251 CNS
[44] = system: OVCAR-4 ovarian
[45] = system: OVCAR-3 ovarian
[46] = system: PC-3 prostate
[47] = system: NCI/ADR-RES ovarian
[48] = system: M14 melanoma
[49] = system: HCC-2998 colon
[50] = system: CCRF-CEM leukemia
[51] = system: RXF 393 renal
[52] = system: RPMI-8226 leukemia
[53] = system: CAKI-1 renal
[54] = system: NCI-H226 lung
[55] = system: MDA-MB-231 breast
[56] = system: MOLT-4 leukemia
[57] = system: BT-549 breast
[58] = system: UO-31 renal

For O=P1(O)C=CC2(CCCC2)O1, the TGI [1] was > 100 µM, the TGI [2] was > 100 µM and the TGI [3] was > 100 µM. The TGI [4] was > 100 µM, the TGI [5] was > 100 µM and the TGI [6] was > 100 µM. For the same molecule, the TGI [7] was > 100 µM, the TGI [8] was > 100 µM and the TGI [9] was > 100 µM. The TGI [10] was > 100 µM, the TGI [11] was > 100 µM and the TGI [12] was > 100 µM. For the same molecule, the TGI [13] was > 100 µM, the TGI [14] was > 100 µM and the TGI [15] was > 100 µM. For the same molecule, the TGI [16] was > 100 µM, the TGI [17] was > 100 µM and the TGI [18] was > 100 µM. For the same molecule, the TGI [19] was > 100 µM, the TGI [20] was > 100 µM and the TGI [21] was > 100 µM. For the same molecule, the TGI [22] was > 100 µM, the TGI [23] was > 100 µM and the TGI [24] was > 100 µM. The TGI [25] was > 100 µM, the TGI [26] was > 100 µM and the TGI [27] was > 100 µM. For the same molecule, the TGI [28] was > 100 µM, the TGI [29] was > 100 µM and the TGI [30] was > 100 µM. For the same molecule, the TGI [31] was > 100 µM, the TGI [32] was > 100 µM and the TGI [33] was > 100 µM. For the same molecule, the TGI [34] was > 100 µM, the TGI [35] was > 100 µM and the TGI [36] was > 100 µM. For the same molecule, the TGI [37] was > 100 µM, the TGI [38] was > 100 µM and the TGI [39] was > 100 µM. For the same molecule, the TGI [40] was > 100 µM, the TGI [41] was > 100 µM and the TGI [42] was > 100 µM. For the same molecule, the TGI [43] was > 100 µM, the TGI [44] was > 100 µM and the TGI [45] was > 100 µM. The TGI [46] was > 100 µM, the TGI [47] was > 100 µM and the TGI [48] was > 100 µM. The TGI [49] was > 100 µM.

In the case of O=c1sc2c(s1)SSSSS2, the TGI [1] is reported as > 50 µM, the TGI [2] is reported as > 50 µM and the TGI [3] is reported as > 50 µM. For the same molecule, the TGI [4] was > 50 µM, the TGI [5] was > 50 µM and the TGI [6] was > 50 µM. For the same molecule, the TGI [7] was > 50 µM, the TGI [8] was > 50 µM and the TGI [10] was > 50 µM. The TGI [11] was > 50 µM, the TGI [12] was > 50 µM and the TGI [50] was 42.1 µM. The TGI [13] was > 50 µM, the TGI [14] was > 50 µM and the TGI [15] was > 50 µM. For the same molecule, the TGI [16] was > 50 µM, the TGI [17] was > 50 µM and the TGI [18] was > 50 µM. For the same molecule, the TGI [19] was > 50 µM, the TGI [20] was > 50 µM and the TGI [51] was > 50 µM. The TGI [21] was > 50 µM, the TGI [52] was > 50 µM and the TGI [22] was > 50 µM. For the same molecule, the TGI [23] was > 50 µM, the TGI [24] was > 50 µM and the TGI [25] was > 50 µM. For the same molecule, the TGI [26] was > 50 µM, the TGI [27] was > 50 µM and the TGI [28] was > 50 µM. For the same molecule, the TGI [29] was > 50 µM, the TGI [30] was > 50 µM and the TGI [31] was > 50 µM. For the same molecule, the TGI [32] was > 50 µM, the TGI [53] was > 50 µM and the TGI [33] was > 50 µM. For the same molecule, the TGI [34] was > 50 µM, the TGI [35] was > 50 µM and the TGI [54] was > 50 µM. The TGI [55] was > 50 µM, the TGI [37] was > 50 µM and the TGI [38] was > 50 µM. For the same molecule, the TGI [39] was > 50 µM, the TGI [40] was > 50 µM and the TGI [41] was > 50 µM. The TGI [56] was 42.3 µM, the TGI [42] was > 50 µM and the TGI [43] was > 50 µM. The TGI [44] was > 50 µM, the TGI [45] was > 50 µM and the TGI [46] was > 50 µM. The TGI [57] was > 50 µM, the TGI [47] was > 50 µM and the TGI [48] was > 50 µM. For the same molecule, the TGI [49] was > 50 µM and the TGI [58] was > 50 µM.
